Source: the NIST ThermoML archive (doi:10.1021/acs.jced.5b00251)

Assay: refractive index (other wavelength) (dimensionless); xn = mol fraction of the nth substance listed
Details: 101 kPa, Liquid, Standard Abbe refractometry

c1ccc2c(c1)CCCC2 [1,2,3,4-tetrahydronaphthalene] + CCCCCCCCCCCC
refractive index
Details | x1 = 0.1014 | x1 = 0.2024 | x1 = 0.3032 | x1 = 0.4036 | x1 = 0.5038 | x1 = 0.6036 | x1 = 0.7032 | x1 = 0.8024 | x1 = 0.9014
293.15 K, Wavelength=436.1 nm | 1.44127 | 1.45203 | 1.46314 | 1.47515 | 1.48812 | 1.50126 | 1.51481 | 1.52971 | 1.54558
293.15 K, Wavelength=513.9 nm | 1.43473 | 1.44489 | 1.45538 | 1.46671 | 1.47843 | 1.49106 | 1.50417 | 1.51804 | 1.53275
293.15 K, Wavelength=589.3 nm | 1.43105 | 1.44086 | 1.45101 | 1.46197 | 1.47329 | 1.48552 | 1.49803 | 1.51156 | 1.52591
293.15 K, Wavelength=633.2 nm | 1.42949 | 1.43917 | 1.44918 | 1.45999 | 1.47113 | 1.48318 | 1.49553 | 1.50887 | 1.52288
293.15 K, Wavelength=657.2 nm | 1.42878 | 1.43896 | 1.44835 | 1.45921 | 1.47078 | 1.48194 | 1.4944 | 1.50801 | 1.52229
298.15 K, Wavelength=436.1 nm | 1.439 | 1.44978 | 1.46073 | 1.47277 | 1.48561 | 1.49875 | 1.51238 | 1.52724 | 1.54301
298.15 K, Wavelength=513.9 nm | 1.43249 | 1.44267 | 1.4533 | 1.46438 | 1.47612 | 1.48874 | 1.50164 | 1.51563 | 1.53046
298.15 K, Wavelength=589.3 nm | 1.42884 | 1.43868 | 1.44896 | 1.45965 | 1.47078 | 1.48302 | 1.4955 | 1.50927 | 1.52353
298.15 K, Wavelength=633.2 nm | 1.42729 | 1.43699 | 1.44692 | 1.45768 | 1.4689 | 1.4807 | 1.4932 | 1.50652 | 1.52049
298.15 K, Wavelength=657.2 nm | 1.42675 | 1.43623 | 1.44627 | 1.45678 | 1.46851 | 1.47967 | 1.49181 | 1.50529 | 1.5199
303.15 K, Wavelength=436.1 nm | 1.43671 | 1.44738 | 1.45818 | 1.4705 | 1.48295 | 1.49619 | 1.50983 | 1.52452 | 1.54034
303.15 K, Wavelength=513.9 nm | 1.43024 | 1.44033 | 1.45084 | 1.46216 | 1.47359 | 1.48633 | 1.49917 | 1.51321 | 1.52785
303.15 K, Wavelength=589.3 nm | 1.42659 | 1.43636 | 1.44635 | 1.45733 | 1.46841 | 1.48085 | 1.49318 | 1.50685 | 1.52095
303.15 K, Wavelength=633.2 nm | 1.42505 | 1.4347 | 1.44438 | 1.45549 | 1.46668 | 1.47855 | 1.49077 | 1.50415 | 1.51798
303.15 K, Wavelength=657.2 nm | 1.42434 | 1.434 | 1.44387 | 1.45441 | 1.46615 | 1.47729 | 1.48949 | 1.50284 | 1.51741
308.15 K, Wavelength=436.1 nm | 1.43455 | 1.44495 | 1.45589 | 1.46783 | 1.4805 | 1.49371 | 1.50749 | 1.52185 | 1.538
308.15 K, Wavelength=513.9 nm | 1.42811 | 1.43794 | 1.44864 | 1.45985 | 1.47118 | 1.48392 | 1.49684 | 1.51075 | 1.52559
308.15 K, Wavelength=589.3 nm | 1.4245 | 1.434 | 1.44408 | 1.45488 | 1.46618 | 1.47848 | 1.49085 | 1.50425 | 1.51872
308.15 K, Wavelength=633.2 nm | 1.42297 | 1.43234 | 1.44222 | 1.45318 | 1.46436 | 1.4762 | 1.48855 | 1.50145 | 1.51565
308.15 K, Wavelength=657.2 nm | 1.42224 | 1.4316 | 1.44127 | 1.45195 | 1.46385 | 1.47498 | 1.48694 | 1.50013 | 1.51517
313.15 K, Wavelength=436.1 nm | 1.43218 | 1.44283 | 1.45339 | 1.46524 | 1.47822 | 1.49111 | 1.50491 | 1.51939 | 1.5354
313.15 K, Wavelength=513.9 nm | 1.42576 | 1.43568 | 1.44614 | 1.45759 | 1.46885 | 1.48167 | 1.49443 | 1.50825 | 1.52307
313.15 K, Wavelength=589.3 nm | 1.42227 | 1.43177 | 1.44157 | 1.45242 | 1.46372 | 1.47625 | 1.48857 | 1.50166 | 1.51623
313.15 K, Wavelength=633.2 nm | 1.42066 | 1.43026 | 1.43979 | 1.45075 | 1.46185 | 1.47398 | 1.48614 | 1.49928 | 1.51325
313.15 K, Wavelength=657.2 nm | 1.41998 | 1.42919 | 1.439 | 1.44965 | 1.46161 | 1.47245 | 1.48468 | 1.49759 | 1.51275
318.15 K, Wavelength=436.1 nm | 1.43001 | 1.44026 | 1.45084 | 1.46269 | 1.47578 | 1.48857 | 1.50241 | 1.51672 | 1.5331
318.15 K, Wavelength=513.9 nm | 1.42366 | 1.43333 | 1.44405 | 1.45487 | 1.46645 | 1.47929 | 1.49184 | 1.50571 | 1.52083
318.15 K, Wavelength=589.3 nm | 1.42009 | 1.42933 | 1.43955 | 1.44985 | 1.46145 | 1.47389 | 1.48615 | 1.49906 | 1.51403
318.15 K, Wavelength=633.2 nm | 1.41859 | 1.42777 | 1.43785 | 1.44826 | 1.45981 | 1.47165 | 1.48389 | 1.49667 | 1.51123
318.15 K, Wavelength=657.2 nm | 1.41814 | 1.42702 | 1.43701 | 1.44718 | 1.45934 | 1.47014 | 1.48216 | 1.49507 | 1.51044
